Results from patent US8841341B2, “Pharmaceutical composition effective against biofilms” (Helmholtz-Zentrum fuer Infektionsforschung GmbH, priority 2007, dated 2014).
Entries after “also recorded” stand apart in the source; their conditions may differ. Read-outs that look alike come from different tables or passages of the source.

Columns and labels:
Type in all cases: cell-based
[1] = tested on: Streptococcus mutans com E (−) mutant; assay: Inhibition of biofilm formation, quorum sensing negative mutant com E (-)
[2] = tested on: E. coli tolC; assay: Antibiotic activity against E. coli tolC in vitro; conditions: E. coli tolC has an impaired cell wall
[3] = tested on: Streptococcus mutans com C (−) mutant; assay: Biofilm formation, quorum sensing negative mutant com C (-); conditions: same testing conditions
Procedure: (§1) Using Streptococcus mutans as a model organism that generates biofilms, overnight cultures of Streptococcus mutans in THB medium (Todd Hewitt Broth, available from Bacto) were diluted 1:100 into fresh THB medium containing 0.5% wt/vol sucrose. For anaerobic growth, medium was flushed with nitrogen before use. Aliquots of the diluted culture (95 μL) of Example 1 were distributed into the wells of a 96-well polystyrene flat bottom microtiter plate, containing 5 μL of different concentrations of test compound or alternatively, 5 μL methanol as a control. Microtiter plates were incubated under aerobic and an anaerobic conditions, respectively, at 37° C. for approximately 24 hours. For non-biofilm forming growth, e.g. planctonic growth, cells were grown in THB without the additional sucrose under otherwise identical conditions.
(§2) Bacterial growth was monitored in the microtiter plate by optical density readings at 620 nm. Quantitative bio film formation was determined using the live/dead bacLight bacterial viability staining kit (available under catalogue number L13152 from Molecular Probes, Eugene, Oreg., USA). […] When used alone, the green fluorescing stain Cyto9 generally labels all bacteria in the population, whereas the red fluorescing stain propidium-iodide only penetrates bacteria having damaged membranes, causing a reduction in the Cyto9 stain fluorescence when both dyes are present. […]

[4] = tested on: Streptococcus mutans luxS mutant; assay: Inhibition of biofilm formation, luxS mutant; conditions: read-out: Biofilm inhibition, luxS mutant
Procedure: as §1, §2

[5] = tested on: Streptococcus mutans planctonic cultures; assay: Planctonic growth (optical density readings at 620 nm); conditions: THB without additional sucrose
Procedure: as §1
Bacterial growth was monitored in the microtiter plate by optical density readings at 620 nm. Quantitative bio film formation was determined using the live/dead bacLight bacterial viability staining kit (available under catalogue number L13152 from Molecular Probes, Eugene, Oreg., USA). […] When used alone, the green fluorescing stain Cyto9 generally labels all bacteria in the population, whereas the red fluorescing stain propidium-iodide only penetrates bacteria having damaged membranes, causing a reduction in the Cyto9 stain fluorescence when both dyes are present.

[6] = tested on: Streptococcus mutans com D (−) mutant; assay: Inhibition of biofilm formation, quorum sensing negative mutant com D (-); conditions: read-out: Biofilm inhibition, com D (−) mutant
Procedure: as §1, §2

[7] = tested on: Streptococcus mutans wild-type strain; assay: Inhibition of biofilm formation in in vitro culture (live/dead BacLight staining, microtiter plate); conditions: for inhibition at 0.025 µg/mL: Carolacton 0.025 μg/mL; for inhibition at 0.25 µg/mL: Carolacton 0.25 μg/mL; for inhibition at 2.5 µg/mL: Carolacton 2.5 μg/mL; for inhibition at 50 µg/mL: Carolacton 50 μg/mL
Procedure: as §1
Bacterial growth was monitored in the microtiter plate by optical density readings at 620 nm. Quantitative bio film formation was determined using the live/dead bacLight bacterial viability staining kit (available under catalogue number L13152 from Molecular Probes, Eugene, Oreg., USA). The kit incorporates two nucleic acid stains that differ in spectral characteristics and their ability to penetrate bacterial cell membranes. When used alone, the green fluorescing stain Cyto9 generally labels all bacteria in the population, whereas the red fluorescing stain propidium-iodide only penetrates bacteria having damaged membranes, causing a reduction in the Cyto9 stain fluorescence when both dyes are present.
For staining, the culture medium was removed from the microtiter plate wells and cells were washed once with 100 μL fresh THB medium to remove planctonic growing and loosely bound cells. According to all the manufacturer's instructions, the adherent bacteria, regarded as the bio film, were then stained for 15 min in the dark at room temperature, using 100 μL of a 1:1 mixture of the two dye components. Fluorescence was measured in a microtiter plate reader (Wallac Victor 1420 multilabel counter, PerkinElmer Life Sciences), equipped with detectors and filter sets for monitoring red and green fluorescence.
Quantitative bio film formation was calculated by dividing the fluorescence intensities of the stained biofilms for each well of the microtiter plate at an emission of 530 nm (green) by the fluorescence intensity at the emission of 630 nm (red). As 100% activity, the results obtained from wells only containing methanol as the control, instead of a test compound, was used. Under anaerobic conditions, Carolacton inhibited formation of biofilm from Streptococcus mutans at very low concentrations.
For a determination of bio film inhibition in relation to the control, the activity value for the Carolacton comprising test well was subtracted from the value obtained for the control. At concentrations of 2.5 and 0.25 μg/mL Carolacton, respectively, bio film formation by Streptococcus mutans wild-type strain was inhibited by about 60% under anaerobic conditions.

[8] = tested on: E. coli; assay: Antibiotic activity against E. coli
[9] = Streptococcus mutans, aerobic, read-out: Biofilm inhibition (%) under aerobic conditions
[10] = Streptococcus mutans, anaerobic, read-out: Biofilm inhibition (%) under anaerobic conditions

## COC(CC(=O)O)C(C)C(=O)C(C)/C=C(\C)C1OC(=O)C(O)C(O)/C=C/C(C)CCCC1C (stereo not shown) [Carolacton]
[1]; Carolacton 2.5 μg/mL, same testing conditions
  Biofilm inhibition, com E (−) mutant: 5%
[1]; Streptococcus mutans, read-out: Biofilm inhibition, com E (−) mutant
  inhibition at 0.25 µg/mL: 12%
[2]
  Concentration with antibiotic activity against E. coli tolC: 60 ng/mL
[3]; Carolacton 0.25 μg/mL
  Induction of biofilm formation, com C (−) mutant: 150%
[3]; Carolacton 2.5 μg/mL
  Induction of biofilm formation, com C (−) mutant: 200%
[4]
  inhibition at 2.5 µg/mL: 59%
  inhibition at 40.25 µg/mL: 46%
[5]
  Influence on planctonic growth: only slightly influenced; also recorded: not influenced by Carolacton, or only marginally reduced
[6]
  inhibition at 0.25 µg/mL: ~10%
  inhibition at 2.5 µg/mL: ~10%
[7]; [9]
  inhibition at 0.025 µg/mL: 21%
  inhibition at 0.25 µg/mL: 21%
  inhibition at 2.5 µg/mL: 19%
  inhibition at 50 µg/mL: 1%
[7]; Streptococcus mutans, anaerobic, Carolacton 0.0025 μg/mL, read-out: Biofilm inhibition (%) under anaerobic conditions
  inhibition at 0.0025 µg/mL: -7%
[7]; Streptococcus mutans, anaerobic, Carolacton 0.005 μg/mL, read-out: Biofilm inhibition (%) under anaerobic conditions
  inhibition at 0.005 µg/mL: 35%
[7]; [10]
  inhibition at 0.025 µg/mL: ~65%
  inhibition at 0.25 µg/mL: ~60%
  inhibition at 2.5 µg/mL: ~60%
  inhibition at 50 µg/mL: 82%
[7]; Streptococcus mutans, anaerobic, Carolacton 0.05 μg/mL, read-out: Biofilm inhibition (%) under anaerobic conditions
  inhibition at 0.05 µg/mL: 60%
[7]; Streptococcus mutans, anaerobic, second experiment, read-out: Biofilm inhibition (%) under anaerobic conditions
  inhibition at 0.25 µg/mL: 77%
[7]; Streptococcus mutans, anaerobic, Carolacton 25 μg/mL, read-out: Biofilm inhibition (%) under anaerobic conditions
  inhibition at 25 µg/mL: 66%
[7]; in vitro cultures
  Lowest concentration achieving inhibition of biofilm generation: 0.005 µg/mL
[8]
  Concentration needed to inhibit E. coli: above 40 μg/mL
